Assay results: BindingDB's records for patent US10618914 (University of Pittsburgh, 2020)

Target: T1, Signal transducer and activator of transcription 1-alpha/beta (Homo sapiens, UniProt P42224)
T1 sequence (P42224 whole entry): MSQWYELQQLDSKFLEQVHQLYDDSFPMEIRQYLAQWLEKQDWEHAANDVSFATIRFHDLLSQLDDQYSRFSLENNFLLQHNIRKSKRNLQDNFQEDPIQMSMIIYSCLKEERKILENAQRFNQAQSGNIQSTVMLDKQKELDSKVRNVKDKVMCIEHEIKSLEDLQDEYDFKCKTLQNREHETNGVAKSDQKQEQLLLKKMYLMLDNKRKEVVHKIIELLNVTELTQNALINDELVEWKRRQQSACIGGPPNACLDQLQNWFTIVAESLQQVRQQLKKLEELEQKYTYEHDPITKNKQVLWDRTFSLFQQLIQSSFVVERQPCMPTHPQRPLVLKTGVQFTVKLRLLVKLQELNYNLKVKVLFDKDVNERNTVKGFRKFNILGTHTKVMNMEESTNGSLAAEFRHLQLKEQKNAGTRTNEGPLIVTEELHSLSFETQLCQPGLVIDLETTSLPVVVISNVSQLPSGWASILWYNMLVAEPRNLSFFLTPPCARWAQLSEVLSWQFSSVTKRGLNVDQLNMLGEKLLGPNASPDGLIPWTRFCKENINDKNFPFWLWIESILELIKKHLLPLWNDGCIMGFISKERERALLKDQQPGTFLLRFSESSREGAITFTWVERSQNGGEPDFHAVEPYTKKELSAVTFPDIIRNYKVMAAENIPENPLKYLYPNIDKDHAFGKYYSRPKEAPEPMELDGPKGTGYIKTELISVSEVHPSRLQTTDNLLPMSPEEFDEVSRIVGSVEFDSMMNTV
Assay: Bioassay Evaluation
Procedure: Compound samples (in 3-5 mg quantities) were evaluated in a variety of assays.

IC50 [µM]	Compound
> 50	CC1Sc2nnc(-c3[nH]nc4c3CCC4)n2N=C1c1ccc(Cl)c(Cl)c1 (configuration not stated) [US10618914, Compound 19]
> 50	CC1(C)Sc2nnc(-c3[nH]nc4c3CCC4)n2N=C1c1ccc(Cl)c(Cl)c1 [US10618914, Compound 32]
